Measurements from patent US20230233532A1, “SPHINGOSINE-1-PHOSPHATE RECEPTOR 1 AGONIST AND LIPOSOMAL FORMULATIONS THEREOF” (The Penn State Research Foundation, priority 2020, published 2023).

How the values were obtained:
HUVEC = HUVEC monolayer model of endothelial gap formation (VE-cadherin staining); format: cell-based, human; conditions: for EC gap formation, screening of inflammatory inhibitors: FIG. 8, 5 μM; for EC gap formation induced by VEGF / EC gap formation induced by IL-8 / EC gap formation induced by BK / EC gap formation, agonist alone: 5 μM; for EC gap formation induced by VEGF: 100 ng/ml VEGF; for EC gap formation induced by IL-8: 150 ng/ml IL-8; for EC gap formation induced by BK: 0.5 μM BK; for EC gap formation, agonist alone: no inflammatory mediator
Protocol: HUVECs were seeded on coverslips coated with fibronectin (Millipore Sigma) and cultured to confluency. […] HUVECs fixed with 2% cold paraformaldehyde (Electron Microscopy Science) and treated with 0.1% triton X-100 (Fisher) were exposed to a human VE-cadherin antibody (Santa Cruz) followed by the secondary antibody conjugated with Alexa488 (Invitrogen). Coverslips were mounted to slides using the antifade mounting medium with DAPI (Vector Laboratories).

[1] = tested on: MAPK/ERK, PI3K/AKT, NF-κB and vascular permeability regulation pathways; assay: Off-target effects on key signaling pathways by western blotting in HUVEC; format: cell-based, human; conditions: versus DMSO control
Protocol: (§1) A monolayer of HUVEC cells following varying treatments were lyzed in RIPA buffer containing protease and phosphatase inhibitors (Pierce Biotechnologies). 20 μg of cell lysate was used for western blotting and probed with antibodies according to the suppliers' recommendations to assess off target effects on several major signaling pathways. Antibodies to p-ERK, ERK, p-PI3K, PI3K, p-FAK, FAK, p-PAK1, PAK1, p-PAK2, PAK2, p-MLC, p-NF-κB, NF-κB were used to probe western blots (Cell Signaling). α-Tubulin (Millipore Sigma) was used as a loading control.

S1PR1 = S1PR1 (Homo sapiens, UniProt P21453); assay: S1P1 GPCR cell-based agonist arrestin biosensor assay (Eurofins DiscoverX); conditions: FIG. 1C
S1PR1, sequence (P21453 whole entry): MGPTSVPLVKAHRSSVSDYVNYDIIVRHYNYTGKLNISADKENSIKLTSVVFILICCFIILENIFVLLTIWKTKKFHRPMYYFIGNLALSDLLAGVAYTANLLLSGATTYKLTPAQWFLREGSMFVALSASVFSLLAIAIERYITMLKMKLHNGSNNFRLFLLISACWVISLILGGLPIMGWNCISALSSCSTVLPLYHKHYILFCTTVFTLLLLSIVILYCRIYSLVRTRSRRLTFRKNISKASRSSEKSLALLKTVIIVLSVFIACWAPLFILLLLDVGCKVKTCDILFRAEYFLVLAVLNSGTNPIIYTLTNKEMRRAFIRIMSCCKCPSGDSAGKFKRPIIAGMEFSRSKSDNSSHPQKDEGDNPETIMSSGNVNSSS
From the text: 4-Phenyl-5-trifluoromethyl-thiophene-2-carboxylic acid (1) was first converted in situ to the corresponding acid chloride by treating with oxalyl chloride in the presence of catalytic N,N-dimethyl formamide. […] The structures of Intermediate 3 and Compound I were characterized on the basis of NMR and mass spectrometry.

[2] = tested on: myosin light chain (MLC) phosphorylation; assay: Western blotting of MLC phosphorylation in HUVEC; format: cell-based, human
Protocol: as §1

[3] = tested on: intact rat mesenteric venules; assay: Hydraulic conductivity (Lp) in individually perfused rat mesenteric microvessels; format: in vivo
Protocol: Experiments were undertaken on mesenteric venules from female Sprague-Dawley rats (2-3-month old, 220-250 g body weight, Sage Laboratory). Inactin hydrate was used for anesthesia through subcutaneous administration. The initial dosage of inactin was 180 mg/kg body weight and an additional 5 mg/dose given as needed. After the rat reached the appropriate plane of anesthesia, determined by the loss of the toe pinch response and the righting reflex, a midline surgical incision was made in the abdominal wall. A loop of the ileum was gently extended from the abdominal cavity and the mesentery was spread over a pillar attached to an animal tray. The upper surface of the mesentery was continuously perfused with mammalian Ringer's solution at 37° C. All experiments were carried out on venules with diameters ranging between […]. Each experiment was performed on a single vessel with one experiment per animal. Euthanasia was performed through bilateral thoracotomy while animals were under anesthesia. Microvessel permeability was assessed by measuring one of the permeability coefficients, hydraulic conductivity, Lp, using the modified […] technique. The assumptions and limitations of the method have been evaluated in detail (31-33). […] The initial water flux (Jv) per unit area of microvessel wall (S), (Jv/S)0, was calculated from the velocity of the marker cell after the vessel was occluded, the vessel radius, and the length between the marker cell and the occlusion site. Microvessel Lp was calculated from the Starling equation, Lp=(Jv/S)/ΔP, where ΔP represents the pressure difference between the hydrostatic pressure applied to the microvessel and the effective oncotic pressure generated from the albumin in the perfusate, assuming the tissue hydrostatic and oncotic pressures are negligible (31). In each experiment, baseline Lp and the stimulus-induced Lp changes were measured in the same vessel, which allows the changes to be compared with its own control. […]

[4] = tested on: S1PR1 in HEK293A-S1P1-GFP cells; assay: S1PR1 internalization assay; format: cell-based; conditions: 5 μM W146
Protocol: […] cells were plated on collagen-coated coverslips (30). Cells were cultured overnight in DMEM with 2% charcoal-stripped serum. Prior to the experiment, cells were cultured in serum-free DMEM for 1.5 hours.

A375M-GFP melanoma cells = assay: Experimental lung metastasis model, A375M-GFP; format: in vivo, Athymic Foxn1nu nude mice; conditions: 5 mg/kg intraperitoneally 6, 12 or 18 hours before cells, day 29; control 62
Protocol: […] lacking Compound I (Lipo) vehicle control, for 6, 12 or 18 hours prior to intravenous injection of 1 million A375M-GFP cells through the tail vein. […] For experiments using UACC 903M-GFP and 1205Lu-GFP cells, 15 mg/kg of the nanoliposomal formulation were given 6 hours before cancer cell injection. Body weight was monitored to ensure no significant toxicity during the experimental metastasis assay. On day 29, whole lungs were removed and imaged by fluorescent microscopy to quantify the numbers of metastatic nodules in a double-blinded manner.

Question: For `CC(=O)N1CCN(C(=O)/C=C/c2ccc(Sc3ccccc3C(C)C)c([N+](=O)[O-])c2)CC1` [Compound A286982], which “EC gap formation, screening of inflammatory inhibitors” value (HUVEC) is on record?
Answer: did not decrease EC gap formation

Question: With `Oc1cccc(-c2noc(-c3cc(-c4ccccc4)c(C(F)(F)F)s3)n2)c1` [Compound I, 3-[5-(4-Phenyl-5-trifluoromethyl-thiophen-2-yl)-[1,2,4]oxadiazol-3-yl]-phenol] as the compound, how does the “levels or activity of biomarker proteins in signaling pathways (off-target effects)” value [1] read?
Answer: No significant changes

Question: And the “EC gap formation induced by VEGF” value (HUVEC)?
Answer: reduced the EC gap formation

Question: And the “EC gap formation induced by IL-8” value (HUVEC)?
Answer: reduced the EC gap formation

Question: And the “EC gap formation induced by BK” value (HUVEC)?
Answer: reduced the EC gap formation

Question: What about the “EC gap formation, agonist alone” value (HUVEC) of the same compound?
Answer: did not affect EC gap formation

Question: What about the “EC gap formation, screening of inflammatory inhibitors” value (HUVEC) of the same compound?
Answer: inhibited EC gap formation

Question: And the “endothelial gap formation induced by MIC-1 and BK” value (HUVEC; confluent HUVEC monolayer)?
Answer: inhibited the endothelial gap formation

Question: And the “endothelial gap formation induced by MIC-1 and VEGF” value (HUVEC; confluent HUVEC monolayer)?
Answer: inhibited the endothelial gap formation

Question: What about the EC50 (S1PR1) of the same compound?
Answer: 43 nM

Question: And the “MLC phosphorylation induced by MIC-1 and inflammatory mediators” value ([2]; FIG. 15E)?
Answer: inhibited the MLC phosphorylation

Question: And the “pMLC levels raised by BK, VEGF or IL-8” value ([2]; HUVEC, western blotting)?
Answer: reverse and decrease the pMLC levels

Question: What about the “pMLC levels, Compound I alone” value ([2]; HUVEC, western blotting) of the same compound?
Answer: did not increase pMLC levels

Question: `CCCCCCc1cccc(NC(=O)[C@H](N)CCP(=O)(O)O)c1` [Compound W146] was tested. Which “effect of W146 on Compound I inhibition of BK-mediated EC gap formation” value (HUVEC; 5 μM W146) did it give?
Answer: blocked the effect of Compound I

Question: And the “effect of W146 on the formulation's inhibition of PAF-induced Lp increase” value ([3]; W146 10 μM)?
Answer: abolished the effect of the nanoliposomal formulation

Question: And the “effect of W146 on internalization mediated by Compound I and SEW2871” value [4]?
Answer: blocked

Question: `COC(=O)c1ccc2c(c1)NC(=O)/C2=C(\Nc1ccc(N(C)C(=O)CN2CCN(C)CC2)cc1)c1ccccc1` [Nintedanib] was tested. Which “EC gap formation, screening of inflammatory inhibitors” value (HUVEC) did it give?
Answer: did not decrease EC gap formation

Question: With `O=C(Nc1c(Cl)cncc1Cl)c1ccc(OC(F)F)c(OCC2CC2)c1` [Roflumilast] as the compound, how does the “EC gap formation, screening of inflammatory inhibitors” value (HUVEC) read?
Answer: did not decrease EC gap formation

Question: How did the “EC gap formation induced by VEGF” value (HUVEC) turn out when `FC(F)(F)c1cccc(-c2noc(-c3cc(-c4ccccc4)c(C(F)(F)F)s3)n2)c1` [SEW2871] was run?
Answer: reduced the EC gap formation

Question: And the “EC gap formation induced by IL-8” value (HUVEC)?
Answer: reduced the EC gap formation

Question: What about the “EC gap formation induced by BK” value (HUVEC) of the same compound?
Answer: reduced the EC gap formation

Question: What about the “EC gap formation, agonist alone” value (HUVEC) of the same compound?
Answer: did not affect EC gap formation

Question: What about the “EC gap formation, screening of inflammatory inhibitors” value (HUVEC) of the same compound?
Answer: inhibited EC gap formation

Question: And the “endothelial gap formation induced by MIC-1 and BK” value (HUVEC; confluent HUVEC monolayer)?
Answer: inhibited the endothelial gap formation

Question: And the “PAF-induced mean Lp” value ([3]; PAF 10 nM in presence of SEW2871 10 PM (printed), n=6)?
Answer: 1.73±0.15 times that of the control

Question: And the “effect on baseline Lp” value ([3]; SEW2871 10 PM (printed), perfusion 30 minutes)?
Answer: did not change the baseline Lp

Question: And the “metastatic nodules in the lung” value (A375M-GFP melanoma cells)?
Answer: 17-27

Question: `C=CC[C@@H]1/C=C(\C)C[C@H](C)C[C@H](OC)[C@H]2O[C@@](O)(C(=O)C(=O)N3CCCC[C@H]3C(=O)O[C@H](/C(C)=C/[C@@H]3CC[C@@H](O)[C@H](OC)C3)[C@H](C)[C@@H](O)CC1=O)[C@H](C)C[C@@H]2OC` [Tacrolimus] was tested. Which “EC gap formation, screening of inflammatory inhibitors” value (HUVEC) did it give?
Answer: did not decrease EC gap formation
